{
  "source": "patent US8388963B2",
  "about": "“Antitumor combinations containing a VEGF-inhibiting agent and 5FU or a derivative thereof” (Aventis Pharma SA, priority 2004, dated 2013)",
  "key": {"[1]": {"format": "in vivo"}, "[2]": {"test_system": "MC 13/C mammary tumor", "experiment": "antitumor activity on subcutaneously transplanted mammary tumor in mice (study BCM-1428)", "method": "A product is considered to be active if log10 killed cells is greater than or equal to 0.7. A product is considered to be very active if the log10 killed cells is greater than 2.8.\n30 to 60 mg of an MC 13/C mammary tumor fragment are transplanted bilaterally, subcutaneously, into the animals subjected to the experiment, generally mice, on day 0. The animals bearing the tumors are randomized before being subjected to the various treatments and controls. In the case of treatment of advanced tumors, the tumors are left to develop until the desired size, the animals having insufficiently developed tumors being eliminated. The animals selected are divided up randomly so as to undergo the treatments and the controls. […] The chemotherapy generally begins from 3 to 22 days after the tumor transplant, according to the type of tumor, and the animals are observed every day. The various groups of animals are weighed three or four times a week until the maximum weight loss is obtained, and then the groups are weighed at least once a week until the end of the trial.\nThe tumors are measured two or three times a week until the tumor reaches approximately 2 g or until the animal's death if the latter occurs before the tumor reaches 2 g. The animals are autopsied when they are sacrificed.\nThe antitumor activity is determined as a function of the various parameters recorded.\n0.2 ml per mouse is prepared, according to the usual technique, for intravenous administration, from a commercial solution of 5 cm^3 containing 250 mg of 5 FU to be diluted with 5% glucose in water.\nThese solutions are administered simultaneously, after suitable dilution, by infusion."}, "[3]": {"settings": "sc VEGF-Trap 2.5 mg/kg/day (total 15), days 4,7,11,14,18,21"}, "[4]": {"settings": "sc VEGF-Trap 10 mg/kg/day (total 60), days 4,7,11,14,18,21"}, "[5]": {"settings": "sc VEGF-Trap 25 mg/kg/day (total 150), days 4,7,11,14,18,21"}, "[6]": {"settings": "sc VEGF-Trap 40 mg/kg/day (total 240), days 4,7,11,14,18,21"}, "[7]": {"settings": "iv 5-FU 34.6 mg/kg/day (total 103.8), days 4,11,18"}, "[8]": {"settings": "iv 5-FU 55.8 mg/kg/day (total 167.4), days 4,11,18"}, "[9]": {"settings": "iv 5-FU 90 mg/kg/day (total 270), days 4,11,18"}, "[10]": {"settings": "iv 5-FU 145 mg/kg/day (total 435), days 4,11,18"}},
  "note": "Like-named read-outs stand apart in the source and are kept apart here.",
  "data": [
    {"compound": "VEGF-Trap: fusion protein: VEGFR1 signal sequence, Ig domain D2 of VEGFR1, Ig domain D3 of VEGFR2, Fc domain of IgG1", "values": [
      {"measurement": "% weight loss at the lowest point", "setting": "[1]; [3]", "value": 0.9, "unit": "%"},
      {"measurement": "Death due to the treatment", "setting": "[1]; [3]", "value": "0/5"},
      {"measurement": "% weight loss at the lowest point", "setting": "[1]; [4]", "value": 1.1, "unit": "%"},
      {"measurement": "Death due to the treatment", "setting": "[1]; [4]", "value": "0/5"},
      {"measurement": "% weight loss at the lowest point", "setting": "[1]; [5]", "value": 1.1, "unit": "%"},
      {"measurement": "Death due to the treatment", "setting": "[1]; [5]", "value": "0/5"},
      {"measurement": "% weight loss at the lowest point", "setting": "[1]; [6]", "value": 2.3, "unit": "%"},
      {"measurement": "Death due to the treatment", "setting": "[1]; [6]", "value": "0/5"},
      {"measurement": "% T/C (inhibition of tumor growth at day 24)", "setting": "[2]; [3]", "value": 32, "unit": "%"},
      {"measurement": "T-C days (delay of tumor growth)", "setting": "[2]; [3]", "value": 5.2, "unit": "days"},
      {"measurement": "lck (log cells killed)", "setting": "[2]; [3]", "value": 0.6},
      {"measurement": "% T/C (inhibition of tumor growth at day 24)", "setting": "[2]; [4]", "value": 9, "unit": "%"},
      {"measurement": "T-C days (delay of tumor growth)", "setting": "[2]; [4]", "value": 12.1, "unit": "days"},
      {"measurement": "lck (log cells killed)", "setting": "[2]; [4]", "value": 1.3},
      {"measurement": "% T/C (inhibition of tumor growth at day 24)", "setting": "[2]; [5]", "value": 8, "unit": "%"},
      {"measurement": "T-C days (delay of tumor growth)", "setting": "[2]; [5]", "value": 13.9, "unit": "days"},
      {"measurement": "lck (log cells killed)", "setting": "[2]; [5]", "value": 1.5},
      {"measurement": "% T/C (inhibition of tumor growth at day 24)", "setting": "[2]; [6]", "value": 4, "unit": "%"},
      {"measurement": "T-C days (delay of tumor growth)", "setting": "[2]; [6]", "value": 12.7, "unit": "days"},
      {"measurement": "lck (log cells killed)", "setting": "[2]; [6]", "value": 1.4}
    ]},
    {"compound": "O=c1[nH]cc(F)c(=O)[nH]1", "note": "[5-FU, 5-fluorouracil, reference compound]", "values": [
      {"measurement": "% weight loss at the lowest point", "setting": "[1]; [7]", "value": "+2.3%"},
      {"measurement": "Death due to the treatment", "setting": "[1]; [7]", "value": "0/5"},
      {"measurement": "% weight loss at the lowest point", "setting": "[1]; [8]", "value": 1.1, "unit": "%"},
      {"measurement": "Death due to the treatment", "setting": "[1]; [8]", "value": "0/5"},
      {"measurement": "% weight loss at the lowest point", "setting": "[1]; [9]", "value": 4.8, "unit": "%"},
      {"measurement": "Death due to the treatment", "setting": "[1]; [9]", "value": "0/5"},
      {"measurement": "% weight loss at the lowest point", "setting": "[1]; [10]", "value": 8.7, "unit": "%"},
      {"measurement": "Death due to the treatment", "setting": "[1]; [10]", "value": "1/5"},
      {"measurement": "% T/C (inhibition of tumor growth at day 24)", "setting": "[2]; [7]", "value": 34, "unit": "%"},
      {"measurement": "T-C days (delay of tumor growth)", "setting": "[2]; [7]", "value": 4.6, "unit": "days"},
      {"measurement": "lck (log cells killed)", "setting": "[2]; [7]", "value": 0.5},
      {"measurement": "% T/C (inhibition of tumor growth at day 24)", "setting": "[2]; [8]", "value": 12, "unit": "%"},
      {"measurement": "T-C days (delay of tumor growth)", "setting": "[2]; [8]", "value": 7.8, "unit": "days"},
      {"measurement": "lck (log cells killed)", "setting": "[2]; [8]", "value": 0.8},
      {"measurement": "% T/C (inhibition of tumor growth at day 24)", "setting": "[2]; [9]", "value": 0, "unit": "%"},
      {"measurement": "T-C days (delay of tumor growth)", "setting": "[2]; [9]", "value": 12.5, "unit": "days"},
      {"measurement": "lck (log cells killed)", "setting": "[2]; [9]", "value": 1.3},
      {"measurement": "% T/C (inhibition of tumor growth at day 24)", "setting": "[2]; [10]", "value": "Toxic"}
    ]}
  ]
}
